Data: US7699995B2, “Water treatment method” (priority 2006, dated 2010)
Values after ≈ are worked out from the molar mass of the structure shown. Where two headings read alike, the source gives them in different places.

Key:
[1] = Stability with oxidizing and reducing agents at pH 7 and pH 9 (HPLC); assay type: physicochemical
Procedure: Oxidizing agents (2 mM) included hydrogen peroxide (H2O2; 68 ppm), t-butyl hydrogen peroxide (t-BHP; 180 ppm), and potassium persulfate (K2O8S2; 540 ppm). Reducing agents (2 mM) included iso-ascorbic acid (IAA; 352 ppm) and sodium bisulfite (NaHSO3; 208 ppm). Biocides were tested at 1 mM concentrations, representing 115 ppm MI and […].
The pH 7.0 buffer contained 0.00426% monopotassium phosphate plus 0.019% magnesium chloride hexahydrate. The pH 9.0 buffer contained 0.0046 M hydrochloric acid plus 0.013 M borax. Stock solutions of the redox agents were prepared and added to aliquots of each buffer to give 2 mM concentrations. The biocides were then added to give 1 mM concentrations. The samples were stored at 25° C. and analyzed for biocide level by HPLC at 0, 2 and 8 days.

Alcaligenes faecalis #93 = test: MIC at pH 7.1 or pH 9.0, half strength TSB; assay type: cell-based; details: three days; for MIC: Alcaligenes faecalis, 72 h, read-out: Minimum Inhibitory Concentration
Procedure: (§1) Minimum inhibitory concentration (MIC) studies were conducted to determine the lowest level of biocide required to inhibit growth of bacteria and fungi. Tests were conducted in 96-well microtiter plates. Biocides were added to growth media in the plates and serially diluted to obtain a range of concentrations. Tests were conducted in one-half strength trypticase soy broth (TSB; adjusted to pH 7.1 or pH 9.0). Bacteria and fungi were added to samples at 10^6 colony forming units per ml and incubated at 30° C. for three days. MIC values were determined visually on a growth no-growth basis.

[2] = tested on: Alcaligenes xylosoxydans #95; test: MIC at pH 7.1 or pH 9.0, half strength TSB; assay type: cell-based; details: three days; for MIC: Achromobacter xylosoxidans, 72 h, read-out: Minimum Inhibitory Concentration
Procedure: as §1

Aspergillus niger #128 = test: MIC at pH 7.1 or pH 9.0, half strength TSB; assay type: cell-based; details: three days; for MIC: Aspergillus niger, 72 h, read-out: Minimum Inhibitory Concentration
Procedure: as §1

Aspergillus sp. #120 = test: MIC at pH 7.1 or pH 9.0, half strength TSB; assay type: cell-based; details: three days; for MIC: Aspergillus, 72 h, read-out: Minimum Inhibitory Concentration
Procedure: as §1

[3] = tested on: Pseudomonas aeruginosa #13; test: MIC at pH 7.1 or pH 9.0, half strength TSB; assay type: cell-based; details: three days; for MIC: Pseudomonas aeruginosa, 72 h, read-out: Minimum Inhibitory Concentration
Procedure: as §1

[4] = tested on: Pseudomonas pseudoalcaligenes #15; test: MIC at pH 7.1 or pH 9.0, half strength TSB; assay type: cell-based; details: three days; for MIC: Ectopseudomonas oleovorans, 72 h, read-out: Minimum Inhibitory Concentration
Procedure: as §1

Rhodotorula rubra #156 = test: MIC at pH 7.1 or pH 9.0, half strength TSB; assay type: cell-based; details: three days; for MIC: Rhodotorula, 72 h, read-out: Minimum Inhibitory Concentration
Procedure: as §1

Streptomyces sp. #130 = test: MIC at pH 7.1 or pH 9.0, half strength TSB; assay type: cell-based; details: three days; for MIC: Streptomyces, 72 h, read-out: Minimum Inhibitory Concentration
Procedure: as §1

[5] = Stability in pH 9 buffer solution at 70° C. (HPLC); details: for loss of active ingredient: day 56
Procedure: pH 9 buffer containing 0.069 M boric acid, 0.017 M citric acid, 0.066 M sodium phosphate was prepared in distilled water. Biocide was dosed into the pH 9 buffer solution and stored at 70° C. in a heat block. The samples were examined for active ingredient concentration at the time points after 5 hours, and 1, 3, 7, 23, 30, 35 and 56 days. Initial biocide doses were 166 ppm MI, 199 ppm BIT and 150 ppm BNPD.
The samples were evaluated for active ingredient concentration via High Pressure Liquid Chromatography. Samples were taken from the heating blocks and allowed to cool to room temperature for 30 minutes. The samples were then diluted 1:20 in deionized water by adding 9.5 ml of deionized water to 0.5 grams of the samples in a 25 ml glass sample vial. The samples were mixed for 15 seconds and transferred to HPLC sample vials for analysis.

Alcaligenes faecalis = test: MIC, bacteria, TSB pH 7; assay type: cell-based; details: 48 h
Procedure: (§2) Minimum inhibitory concentration (MIC) studies were conducted to determine the lowest level of biocide required to inhibit growth of bacteria and fungi. Tests were conducted in 96-well microtiter plates. Biocides were added to growth media in the plates and serially diluted to obtain a range of concentrations. Bacterial tests were conducted in trypticase soy broth (TSB; pH 7) using an overnight inoculum added at 10^6 colony forming units per ml. […] Fungal tests were conducted in malt extract broth (MEB; pH 4.7) using an 5-7 day inoculum added at 10^4 colony forming units per ml.

Citrobacter freundii = test: MIC, bacteria, TSB pH 7; assay type: cell-based; details: 48 h, TSB pH 7, 25° C., two days
Procedure: as §2

Enterobacter cloacae = test: MIC, bacteria, TSB pH 7; assay type: cell-based; details: 48 h
Procedure: as §2

Escherichia coli = test: MIC, bacteria, TSB pH 7; assay type: cell-based; details: 48 h
Procedure: as §2

Klebsiella pneumoniae = test: MIC, bacteria, TSB pH 7; assay type: cell-based; details: 48 h
Procedure: as §2

Proteus mirabilis = test: MIC, bacteria, TSB pH 7; assay type: cell-based; details: 48 h
Procedure: as §2

Pseudomonas aeruginosa = test: MIC, bacteria, TSB pH 7; assay type: cell-based; details: 48 h, TSB pH 7, 25° C., two days
Procedure: as §2

Pseudomonas fluorescens = test: MIC, bacteria, TSB pH 7; assay type: cell-based; details: 48 h, TSB pH 7, 25° C., two days
Procedure: as §2

Pseudomonas oleovorans = test: MIC, bacteria, TSB pH 7; assay type: cell-based
Procedure: as §2

Pseudomonas putida = test: MIC, bacteria, TSB pH 7; assay type: cell-based; details: 48 h
Procedure: as §2

Shewanella putrefaciens = test: MIC, bacteria, TSB pH 7; assay type: cell-based; details: 48 h
Procedure: as §2

[6] = K-persulfate 2 mM, pH 7, 25° C.
[7] = K-persulfate 2 mM, pH 9, 25° C.
[8] = Na bisulfite 2 mM, pH 7, 25° C.
[9] = Na bisulfite 2 mM, pH 9, 25° C.

## O=c1[nH]sc2ccccc12 [BIT, 1,2-benzisothiazolin-3-one, reference compound]
[1]; H2O2 2 mM, pH 7, 25° C.
  % Remaining after 2 Days: 39%
  % Remaining after 8 Days: 15%
[1]; H2O2 2 mM, pH 9, 25° C.
  % Remaining after 2 Days: 8%
  % Remaining after 8 Days: 0%
[1]; IAA 2 mM, pH 7, 25° C.
  % Remaining after 2 Days: 89%
  % Remaining after 8 Days: 86%
[1]; IAA 2 mM, pH 9, 25° C.
  % Remaining after 2 Days: 77%
  % Remaining after 8 Days: 75%
[1]; [6]
  % Remaining after 2 Days: 0%
  % Remaining after 8 Days: 0%
[1]; [7]
  % Remaining after 2 Days: 0%
  % Remaining after 8 Days: 0%
[1]; [8]
  % Remaining after 2 Days: 38%
  % Remaining after 8 Days: 28%
[1]; [9]
  % Remaining after 2 Days: 82%
  % Remaining after 8 Days: 77%
[1]; no redox agent, pH 7, 25° C.
  % Remaining after 2 Days: 100%
  % Remaining after 8 Days: 100%
[1]; no redox agent, pH 9, 25° C.
  % Remaining after 2 Days: 100%
  % Remaining after 8 Days: 100%
[1]; t-BHP 2 mM, pH 7, 25° C.
  % Remaining after 2 Days: 43%
  % Remaining after 8 Days: 8%
[1]; t-BHP 2 mM, pH 9, 25° C.
  % Remaining after 2 Days: 38%
  % Remaining after 8 Days: 6%
Alcaligenes faecalis #93; pH 7.1, 30° C.
  Minimum Inhibitory Concentration: <1.6 ppm
Alcaligenes faecalis #93; pH 9.0, 30° C.
  Minimum Inhibitory Concentration: 6.3 ppm
[2]; pH 7.1, 30° C.
  Minimum Inhibitory Concentration: 6.3 ppm
[2]; pH 9.0, 30° C.
  Minimum Inhibitory Concentration: 25 ppm
Aspergillus niger #128; pH 7.1, 30° C.
  Minimum Inhibitory Concentration: 50 ppm
Aspergillus niger #128; pH 9.0, 30° C.
  Minimum Inhibitory Concentration: 200 ppm
Aspergillus sp. #120; pH 7.1, 30° C.
  Minimum Inhibitory Concentration: 50 ppm
Aspergillus sp. #120; pH 9.0, 30° C.
  Minimum Inhibitory Concentration: 400 ppm
[3]; pH 7.1, 30° C.
  Minimum Inhibitory Concentration: 50 ppm
[3]; pH 9.0, 30° C.
  Minimum Inhibitory Concentration: 200 ppm
[4]; pH 7.1, 30° C.
  Minimum Inhibitory Concentration: 12.5 ppm
[4]; pH 9.0, 30° C.
  Minimum Inhibitory Concentration: 25 ppm
Rhodotorula rubra #156; pH 7.1, 30° C.
  Minimum Inhibitory Concentration: <6.3 ppm
Rhodotorula rubra #156; pH 9.0, 30° C.
  Minimum Inhibitory Concentration: 100 ppm
Streptomyces sp. #130; pH 7.1, 30° C.
  Minimum Inhibitory Concentration: <1.6 ppm
Streptomyces sp. #130; pH 9.0, 30° C.
  Minimum Inhibitory Concentration: 3.2 ppm
[5]
  Percent Remaining after: 5 hr: 98%
  Percent Remaining after: 1 day: 97%
  Percent Remaining after: 3 day: 94%
  Percent Remaining after: 7 day: 92%
  Percent Remaining after: 23 day: 86%
  Percent Remaining after: 30 day: 71%
  Percent Remaining after: 35 day: 63%
  Percent Remaining after: 56 day: 68%
  loss of active ingredient: 32%
  Percent Remaining after: 0: 100%

## Cn1sccc1=O [MI, 2-methyl-4-isothiazolin-3-one]
[1]; H2O2 2 mM, pH 7, 25° C.
  % Remaining after 2 Days: 100%
  % Remaining after 8 Days: 100%
[1]; H2O2 2 mM, pH 9, 25° C.
  % Remaining after 2 Days: 94%
  % Remaining after 8 Days: 88%
[1]; IAA 2 mM, pH 7, 25° C.
  % Remaining after 2 Days: 100%
  % Remaining after 8 Days: 96%
[1]; IAA 2 mM, pH 9, 25° C.
  % Remaining after 2 Days: 105%
  % Remaining after 8 Days: 103%
[1]; [6]
  % Remaining after 2 Days: 90%
  % Remaining after 8 Days: 75%
[1]; [7]
  % Remaining after 2 Days: 93%
  % Remaining after 8 Days: 73%
[1]; [8]
  % Remaining after 2 Days: 29%
  % Remaining after 8 Days: 26%
[1]; [9]
  % Remaining after 2 Days: 70%
  % Remaining after 8 Days: 78%
[1]; no redox agent, pH 7, 25° C.
  % Remaining after 2 Days: 100%
  % Remaining after 8 Days: 100%
[1]; no redox agent, pH 9, 25° C.
  % Remaining after 2 Days: 100%
  % Remaining after 8 Days: 100%
[1]; t-BHP 2 mM, pH 7, 25° C.
  % Remaining after 2 Days: 99%
  % Remaining after 8 Days: 102%
[1]; t-BHP 2 mM, pH 9, 25° C.
  % Remaining after 2 Days: 98%
  % Remaining after 8 Days: 96%
Alcaligenes faecalis
  MIC: 28 µg/mL (≈ 243 µM)
Citrobacter freundii; first listed
  MIC: 25 µg/mL (≈ 217 µM)
Citrobacter freundii; second listed
  MIC: 41 µg/mL (≈ 356 µM)
Enterobacter cloacae
  MIC: 25 µg/mL (≈ 217 µM)
Escherichia coli
  MIC: 31 µg/mL (≈ 269 µM)
Klebsiella pneumoniae
  MIC: 12 µg/mL (≈ 104 µM)
Proteus mirabilis
  MIC: 21 µg/mL (≈ 182 µM)
Pseudomonas aeruginosa; first listed
  MIC: 15 µg/mL (≈ 130 µM)
Pseudomonas aeruginosa; second listed
  MIC: 25 µg/mL (≈ 217 µM)
Pseudomonas fluorescens; first listed
  MIC: 31 µg/mL (≈ 269 µM)
Pseudomonas fluorescens; second listed
  MIC: 16 µg/mL (≈ 139 µM)
Pseudomonas oleovorans; Ectopseudomonas oleovorans, 48 h, pH 7
  MIC: 6 µg/mL (≈ 52.1 µM)
Pseudomonas oleovorans; Pseudomonas oleovorans, second listed, TSB pH 7, 25° C., two days
  MIC: 6 ppm
Pseudomonas putida
  MIC: 13 µg/mL (≈ 113 µM)
Shewanella putrefaciens
  MIC: 13 µg/mL (≈ 113 µM)
Alcaligenes faecalis #93; pH 7.1, 30° C.
  MIC: 3.2 µg/mL (≈ 27.8 µM)
Alcaligenes faecalis #93; pH 9.0, 30° C.
  MIC: 6.3 µg/mL (≈ 54.7 µM)
[2]; pH 7.1, 30° C.
  MIC: 12.5 µg/mL (≈ 109 µM)
[2]; pH 9.0, 30° C.
  MIC: 25 µg/mL (≈ 217 µM)
Aspergillus niger #128; pH 7.1, 30° C.
  MIC: 100 µg/mL (≈ 868 µM)
Aspergillus niger #128; pH 9.0, 30° C.
  MIC: 100 µg/mL (≈ 868 µM)
Aspergillus sp. #120; pH 7.1, 30° C.
  MIC: 50 µg/mL (≈ 434 µM)
Aspergillus sp. #120; pH 9.0, 30° C.
  MIC: 50 µg/mL (≈ 434 µM)
[3]; pH 7.1, 30° C.
  MIC: 12.5 µg/mL (≈ 109 µM)
[3]; pH 9.0, 30° C.
  MIC: 6.3 µg/mL (≈ 54.7 µM)
[4]; pH 7.1, 30° C.
  MIC: 25 µg/mL (≈ 217 µM)
[4]; pH 9.0, 30° C.
  MIC: 25 µg/mL (≈ 217 µM)
Rhodotorula rubra #156; pH 7.1, 30° C.
  MIC: 25 µg/mL (≈ 217 µM)
Rhodotorula rubra #156; pH 9.0, 30° C.
  MIC: 25 µg/mL (≈ 217 µM)
Streptomyces sp. #130; pH 7.1, 30° C.
  MIC: 3.2 µg/mL (≈ 27.8 µM)
Streptomyces sp. #130; pH 9.0, 30° C.
  MIC: 3.2 µg/mL (≈ 27.8 µM)
[5]
  Percent Remaining after: 5 hr: 96%
  Percent Remaining after: 1 day: 96%
  Percent Remaining after: 3 day: 96%
  Percent Remaining after: 7 day: 93%
  Percent Remaining after: 23 day: 95%
  Percent Remaining after: 30 day: 101%
  Percent Remaining after: 35 day: 93%
  Percent Remaining after: 56 day: 102%
  loss of active ingredient: no loss
  Percent Remaining after: 0: 100%
